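96-well plates; 48 h exposure; 5 concentrations. Endpoints by linear interpolation between flanking doses. Not reached: highest tested concentration assigned. GI50: concentration for 50% inhibition of growth. TGI: total growth inhibition.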
What was measured:
Experiment in all cases: growth of human tumour cells (NCI), 48 h
LXFL 529 NSCLC = tested on: LXFL 529 NSCLC
M14 melanoma = tested on: M14 melanoma
SF-539 CNS = tested on: SF-539 CNS
HOP-18 NSCLC = tested on: HOP-18 NSCLC
SF-295 CNS = tested on: SF-295 CNS
OVCAR-4 ovarian = tested on: OVCAR-4 ovarian
EKVX NSCLC = tested on: EKVX NSCLC
NCI-H23 lung = tested on: NCI-H23 lung
HCC-2998 colon = tested on: HCC-2998 colon
KM12 colon = tested on: KM12 colon
UACC-62 melanoma = tested on: UACC-62 melanoma
U251 CNS = tested on: U251 CNS
SW-620 colon = tested on: SW-620 colon
M19-MEL melanoma = tested on: M19-MEL melanoma
SK-MEL-2 melanoma = tested on: SK-MEL-2 melanoma
SNB-78 CNS = tested on: SNB-78 CNS
RPMI-8226 leukemia = tested on: RPMI-8226 leukemia
SNB-75 CNS = tested on: SNB-75 CNS
OVCAR-3 ovarian = tested on: OVCAR-3 ovarian
SF-268 CNS = tested on: SF-268 CNS
K-562 leukemia = tested on: K-562 leukemia
KM20L2 colon = tested on: KM20L2 colon
SN12C renal = tested on: SN12C renal
MOLT-4 leukemia = tested on: MOLT-4 leukemia
SK-MEL-5 melanoma = tested on: SK-MEL-5 melanoma
NCI-H460 lung = tested on: NCI-H460 lung
HT29 colon = tested on: HT29 colon
NCI-H522 lung = tested on: NCI-H522 lung
COLO 205 colon = tested on: COLO 205 colon
A498 renal = tested on: A498 renal
HCT-116 colon = tested on: HCT-116 colon
MALME-3M melanoma = tested on: MALME-3M melanoma
HOP-92 NSCLC = tested on: HOP-92 NSCLC
SNB-19 CNS = tested on: SNB-19 CNS
786-0 renal = tested on: 786-0 renal
OVCAR-5 ovarian = tested on: OVCAR-5 ovarian
DLD-1 colon = tested on: DLD-1 colon
SK-OV-3 ovarian = tested on: SK-OV-3 ovarian
CCRF-CEM leukemia = tested on: CCRF-CEM leukemia
UACC-257 melanoma = tested on: UACC-257 melanoma
HOP-62 NSCLC = tested on: HOP-62 NSCLC
DMS 273 small cell lung = tested on: DMS 273 small cell lung
CAKI-1 renal = tested on: CAKI-1 renal
IGROV1 ovarian = tested on: IGROV1 ovarian
A549 NSCLC = tested on: A549 NSCLC
OVCAR-8 ovarian = tested on: OVCAR-8 ovarian
ACHN renal = tested on: ACHN renal
TK-10 renal = tested on: TK-10 renal
HL-60(TB) leukemia = tested on: HL-60(TB) leukemia
NCI-H226 lung = tested on: NCI-H226 lung
UO-31 renal = tested on: UO-31 renal
SK-MEL-28 melanoma = tested on: SK-MEL-28 melanoma
RXF 393 renal = tested on: RXF 393 renal
LOX IMVI melanoma = tested on: LOX IMVI melanoma
HCT-15 colon = tested on: HCT-15 colon
DMS 114 small cell lung = tested on: DMS 114 small cell lung
XF 498 CNS = tested on: XF 498 CNS

**Q.** What does the source list for `COC(=O)C[CH](C(=O)OC)[Ge]([CH3])([CH3])[S]c1ccccc1` (configuration not stated)?
**A.** GI50 (LXFL 529 NSCLC): 17.5 µM; TGI (LXFL 529 NSCLC): 36 µM; GI50 (M14 melanoma): 21.5 µM; TGI (M14 melanoma): 57.5 µM; GI50 (SF-539 CNS): 22.1 µM; TGI (SF-539 CNS): 39.7 µM; GI50 (HOP-18 NSCLC): > 100 µM; TGI (HOP-18 NSCLC): > 100 µM; GI50 (SF-295 CNS): 12.6 µM; TGI (SF-295 CNS): 40 µM; GI50 (OVCAR-4 ovarian): 18.1 µM; TGI (OVCAR-4 ovarian): 72.4 µM; GI50 (EKVX NSCLC): 16.1 µM; TGI (EKVX NSCLC): 75.2 µM; GI50 (NCI-H23 lung): 22.9 µM; TGI (NCI-H23 lung): 64.7 µM; GI50 (HCC-2998 colon): 40.4 µM; TGI (HCC-2998 colon): > 100 µM; GI50 (KM12 colon): 17 µM; TGI (KM12 colon): 46.2 µM; GI50 (UACC-62 melanoma): 15.8 µM; TGI (UACC-62 melanoma): 36.2 µM; GI50 (U251 CNS): 12 µM; TGI (U251 CNS): 26.2 µM; GI50 (SW-620 colon): 13 µM; TGI (SW-620 colon): 26.8 µM; GI50 (M19-MEL melanoma): 16.9 µM; TGI (M19-MEL melanoma): 54.7 µM; GI50 (SK-MEL-2 melanoma): 16.2 µM; TGI (SK-MEL-2 melanoma): > 100 µM; GI50 (SNB-78 CNS): 22.1 µM; TGI (SNB-78 CNS): 96.7 µM; GI50 (RPMI-8226 leukemia): 17.1 µM; TGI (RPMI-8226 leukemia): 56.7 µM; GI50 (SNB-75 CNS): 22.1 µM; TGI (SNB-75 CNS): 72.2 µM; GI50 (OVCAR-3 ovarian): 15.1 µM; TGI (OVCAR-3 ovarian): 38.8 µM; GI50 (SF-268 CNS): 18.7 µM; TGI (SF-268 CNS): 64.1 µM; GI50 (K-562 leukemia): 17.4 µM; TGI (K-562 leukemia): > 100 µM; GI50 (KM20L2 colon): 26.7 µM; TGI (KM20L2 colon): 67.9 µM; GI50 (SN12C renal): 16 µM; TGI (SN12C renal): 32 µM; GI50 (MOLT-4 leukemia): 3.37 µM; TGI (MOLT-4 leukemia): 18.4 µM; GI50 (SK-MEL-5 melanoma): 33.1 µM; TGI (SK-MEL-5 melanoma): > 100 µM; GI50 (NCI-H460 lung): 15.5 µM; TGI (NCI-H460 lung): 28.8 µM; GI50 (HT29 colon): 18.6 µM; TGI (HT29 colon): 38.5 µM; GI50 (NCI-H522 lung): 2.94 µM; TGI (NCI-H522 lung): 10.3 µM; GI50 (COLO 205 colon): 13.9 µM; TGI (COLO 205 colon): 27.1 µM; GI50 (A498 renal): 19.7 µM; TGI (A498 renal): 60.9 µM; GI50 (HCT-116 colon): 27.9 µM; TGI (HCT-116 colon): 58.2 µM; GI50 (MALME-3M melanoma): > 100 µM; TGI (MALME-3M melanoma): > 100 µM; GI50 (HOP-92 NSCLC): 48.6 µM; TGI (HOP-92 NSCLC): 95.8 µM; GI50 (SNB-19 CNS): 19.5 µM; TGI (SNB-19 CNS): 49.9 µM; GI50 (786-0 renal): 15.9 µM; TGI (786-0 renal): 30.7 µM; GI50 (OVCAR-5 ovarian): 18.7 µM; TGI (OVCAR-5 ovarian): 42.6 µM; GI50 (DLD-1 colon): 22 µM; TGI (DLD-1 colon): 42.4 µM; GI50 (SK-OV-3 ovarian): 25.8 µM; TGI (SK-OV-3 ovarian): 67 µM; GI50 (CCRF-CEM leukemia): 1.67 µM; TGI (CCRF-CEM leukemia): 6.25 µM; GI50 (UACC-257 melanoma): 33 µM; TGI (UACC-257 melanoma): > 100 µM; GI50 (HOP-62 NSCLC): 22.4 µM; TGI (HOP-62 NSCLC): 50.5 µM; GI50 (DMS 273 small cell lung): 12.6 µM; TGI (DMS 273 small cell lung): 29.9 µM; GI50 (CAKI-1 renal): 20.8 µM; TGI (CAKI-1 renal): 47.8 µM; GI50 (IGROV1 ovarian): 0.463 µM; TGI (IGROV1 ovarian): 2.2 µM; GI50 (A549 NSCLC): 43.9 µM; TGI (A549 NSCLC): > 100 µM; GI50 (OVCAR-8 ovarian): 19.3 µM; TGI (OVCAR-8 ovarian): 76.9 µM; GI50 (ACHN renal): 18.4 µM; TGI (ACHN renal): 36.6 µM; GI50 (TK-10 renal): 38.9 µM; TGI (TK-10 renal): > 100 µM; GI50 (HL-60(TB) leukemia): 3 µM; TGI (HL-60(TB) leukemia): 17.5 µM; GI50 (NCI-H226 lung): 13.8 µM; TGI (NCI-H226 lung): 35.1 µM; GI50 (UO-31 renal): 7.06 µM; TGI (UO-31 renal): 21 µM; GI50 (SK-MEL-28 melanoma): 23.3 µM; TGI (SK-MEL-28 melanoma): 65.7 µM; GI50 (RXF 393 renal): 37.9 µM; TGI (RXF 393 renal): 55.9 µM; GI50 (LOX IMVI melanoma): 4.92 µM; TGI (LOX IMVI melanoma): 17.1 µM; GI50 (HCT-15 colon): 13.2 µM; TGI (HCT-15 colon): 27.6 µM

**Q.** Which TGI (LXFL 529 NSCLC) does the source give for `COc1ccc(/C=C2\Cc3ccccc3C2=O)cc1OC` here?
**A.** > 100 µM

**Q.** What about the TGI (M14 melanoma) of the same molecule?
**A.** > 100 µM

**Q.** And the TGI (SF-295 CNS)?
**A.** > 100 µM

**Q.** What about the TGI (OVCAR-4 ovarian) of the same molecule?
**A.** > 100 µM

**Q.** What about the TGI (EKVX NSCLC) of the same molecule?
**A.** > 100 µM

**Q.** What about the TGI (NCI-H23 lung) of the same molecule?
**A.** > 100 µM

**Q.** And the TGI (HCC-2998 colon)?
**A.** > 100 µM

**Q.** What about the TGI (KM12 colon) of the same molecule?
**A.** > 100 µM

**Q.** What about the TGI (UACC-62 melanoma) of the same molecule?
**A.** > 100 µM

**Q.** And the TGI (U251 CNS)?
**A.** > 100 µM

**Q.** What about the TGI (SW-620 colon) of the same molecule?
**A.** > 100 µM

**Q.** What about the TGI (M19-MEL melanoma) of the same molecule?
**A.** > 100 µM

**Q.** What about the TGI (SK-MEL-2 melanoma) of the same molecule?
**A.** > 100 µM

**Q.** And the TGI (SNB-78 CNS)?
**A.** > 100 µM

**Q.** And the TGI (RPMI-8226 leukemia)?
**A.** > 100 µM

**Q.** And the TGI (OVCAR-3 ovarian)?
**A.** > 100 µM

**Q.** And the TGI (SF-268 CNS)?
**A.** > 100 µM

**Q.** What about the TGI (K-562 leukemia) of the same molecule?
**A.** > 100 µM

**Q.** And the TGI (KM20L2 colon)?
**A.** > 100 µM

**Q.** And the TGI (SN12C renal)?
**A.** > 100 µM

**Q.** What about the TGI (MOLT-4 leukemia) of the same molecule?
**A.** > 100 µM

**Q.** And the TGI (SK-MEL-5 melanoma)?
**A.** > 100 µM

**Q.** And the TGI (DMS 114 small cell lung)?
**A.** > 100 µM

**Q.** And the TGI (NCI-H460 lung)?
**A.** > 100 µM

**Q.** And the TGI (HT29 colon)?
**A.** > 100 µM

**Q.** And the TGI (NCI-H522 lung)?
**A.** > 100 µM

**Q.** And the TGI (COLO 205 colon)?
**A.** > 100 µM

**Q.** And the TGI (A498 renal)?
**A.** > 100 µM

**Q.** And the TGI (MALME-3M melanoma)?
**A.** > 100 µM

**Q.** And the TGI (SNB-19 CNS)?
**A.** > 100 µM

**Q.** What about the TGI (786-0 renal) of the same molecule?
**A.** > 100 µM

**Q.** And the TGI (OVCAR-5 ovarian)?
**A.** > 100 µM

**Q.** And the TGI (DLD-1 colon)?
**A.** > 100 µM

**Q.** What about the TGI (SK-OV-3 ovarian) of the same molecule?
**A.** > 100 µM

**Q.** What about the TGI (CCRF-CEM leukemia) of the same molecule?
**A.** > 100 µM

**Q.** And the TGI (UACC-257 melanoma)?
**A.** > 100 µM

**Q.** And the TGI (XF 498 CNS)?
**A.** > 100 µM

**Q.** What about the TGI (HOP-62 NSCLC) of the same molecule?
**A.** > 100 µM

**Q.** And the TGI (CAKI-1 renal)?
**A.** > 100 µM

**Q.** What about the TGI (IGROV1 ovarian) of the same molecule?
**A.** > 100 µM

**Q.** And the TGI (A549 NSCLC)?
**A.** > 100 µM

**Q.** What about the TGI (OVCAR-8 ovarian) of the same molecule?
**A.** > 100 µM

**Q.** What about the TGI (ACHN renal) of the same molecule?
**A.** > 100 µM

**Q.** What about the TGI (TK-10 renal) of the same molecule?
**A.** > 100 µM

**Q.** What about the TGI (UO-31 renal) of the same molecule?
**A.** > 100 µM

**Q.** What about the TGI (SK-MEL-28 melanoma) of the same molecule?
**A.** > 100 µM

**Q.** And the TGI (HCT-15 colon)?
**A.** > 100 µM
